In US12187713B2, “Immunomodulators, compositions and methods thereof” (Betta Pharmaceuticals Co., Ltd, priority 2019, dated 2025):

Biological target: PD-1/PD-L1 (Homo sapiens (Human), UniProt Q9NZQ7)
Experiment: PD-1/PD-L1 Binding Assay (Alphascreen)
Conditions: numeric values
Outline: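 PD-1/PD-L1 binding detected by anti-6×His acceptor and streptavidin donor beads after 120 min in the dark at 25 °C. Beforehand, the two proteins were incubated 15 min at 25 °C with inhibitor at 0.015–300 nM (1% DMSO). IC50 comes from a log concentration–response curve.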

PD-1/PD-L1, sequence (Q9NZQ7 19-238): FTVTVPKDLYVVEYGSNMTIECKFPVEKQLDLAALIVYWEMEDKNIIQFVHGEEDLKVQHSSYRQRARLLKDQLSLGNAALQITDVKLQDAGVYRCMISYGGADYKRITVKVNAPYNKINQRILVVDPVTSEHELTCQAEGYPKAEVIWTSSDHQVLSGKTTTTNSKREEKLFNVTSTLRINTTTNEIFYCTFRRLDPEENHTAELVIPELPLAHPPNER

| SMILES | IC50 [nM] |
| --- | --- |
| Cc1c(-c2nc3cc(CN4CCC[C@H]4C(=O)O)c(OC(F)F)cc3o2)cccc1-c1cccc(-c2ccc(CNC[C@@H]3CCC(=O)N3)cc2)c1F [Example 215, ((6-(difluoromethoxy)-2-(2′-fluoro-2-methyl-4″- (((((S)-5-oxopyrrolidin-2-yl)methyl)amino)methyl)-[1,1′:3′,1″- terphenyl]-3-yl)benzo[d]oxazol-5-yl)methyl)-L-proline] | 2.8 |
| Cc1c(-c2ccc(CNCCO)cc2)cccc1-c1cccc(-c2nc3cc(CN4CCC[C@H]4C(=O)O)c(OC(F)F)cc3o2)c1C [Example 217, ((6-(difluoromethoxy)-2-(4″-(((2-hydroxyethyl)amino)methyl)-2,2′-dimethyl-[1,1′:3′,1″-terphenyl]-3-yl)benzo[d]oxazol-5-yl)methyl)-L-proline] | 0.67 |
| Cc1c(-c2ccc(NC(=N)N)cc2)cccc1-c1cccc(-c2nc3cc(CN4CCC[C@H]4C(=O)O)c(OC(F)F)cc3o2)c1C [Example 225, ((6-(difluoromethoxy)-2-(4″-guanidino-2,2′-dimethyl-[1,1′:3,1″-terphenyl]-3-yl)benzo[d]oxazol-5-yl)methyl)-L-proline] | 2 |
| Cc1c(-c2ccc(CN(C)CCCN(C)C)cc2)cccc1-c1cccc(-c2nc3cc(CN4CCC[C@H]4C(=O)O)c(OC(F)F)cc3o2)c1C [Example 226, ((6-(difluoromethoxy)-2-(4″-(((3-(dimethylamino)propyl)(methyl)amino)methyl)-2,2′-dimethyl-[1,1′:3′,1″-terphenyl]-3-yl)benzo[d]oxazol-5-yl)methyl)-L-proline] | 4.7 |

Continued, values first:

| IC50 [nM] | SMILES |
| --- | --- |
| 4.3 | Cc1c(-c2ccc(CN3CCC(N(C)C)C3)cc2)cccc1-c1cccc(-c2nc3cc(CN4CCC[C@H]4C(=O)O)c(OC(F)F)cc3o2)c1C (stereo partly drawn) [Example 228, ((6-(difluoromethoxy)-2-(4″-((3-(dimethylamino)pyrrolidin-1-yl)methyl)-2,2′-dimethyl-[1,1′:3′,1″-terphenyl]-3-yl)benzo[d]oxazol-5-yl)methyl)-L-proline] |
| 6.9 | Cc1c(-c2ccc(CN3CCCC3)c(Cl)c2)cccc1-c1cccc(-c2nc3cc(CN4CCC[C@H]4C(=O)O)c(OC(F)F)cc3o2)c1C [Example 229, ((2-(3″-chloro-2,2′-dimethyl-4″-(pyrrolidin-1-ylmethyl)-[1,1′:3′,1″-terphenyl]-3-yl)-6-(difluoromethoxy)benzo[d]oxazol-5-yl)methyl)-L-proline] |
| 1.5 | Cc1cc(-c2cccc(-c3cccc(-c4nc5cc(CN6CCC[C@H]6C(=O)O)c(OC(F)F)cc5o4)c3C)c2C)ccc1CN1CCCC1 [Example 230, ((6-(difluoromethoxy)-2-(2,2′,3″-trimethyl-4″- (pyrrolidin-1-ylmethyl)-[1,1′:3′,1″-terphenyl]-3-yl)benzo[d]oxazol-5-yl)methyl)-L-proline] |
| 7.8 | Cc1c(-c2ccc(CN3CCCC3)c(OC(F)(F)F)c2)cccc1-c1cccc(-c2nc3cc(CN4CCC[C@H]4C(=O)O)c(OC(F)F)cc3o2)c1C [Example 232, ((6-(difluoromethoxy)-2-(2,2′-dimethyl-4″- (pyrrolidin-1-ylmethyl)-3″-(trifluoromethoxy)-[1,1′:3′,1″-terphenyl]-3-yl)benzo[d]oxazol-5-yl)methyl)-L-proline] |
| 0.52 | Cc1cc(-c2cccc(-c3cccc(-c4nc5cc(CN6CCC[C@H]6C(=O)O)c(OC(F)F)cc5o4)c3C)c2C)cc(C)c1CN1CCCC1 [Example 234, ((6-(difluoromethoxy)-2-(2,2′,3″,5″-tetramethyl-4″-(pyrrolidin-1-ylmethyl)-[1,1′:3′,1″- terphenyl]-3-yl)benzo[d]oxazol-5-yl)methyl)-L-proline] |
| 1.8 | COc1cc(-c2cccc(-c3cccc(-c4nc5cc(CN6CCC[C@H]6C(=O)O)c(OC(F)F)cc5o4)c3C)c2C)cc(F)c1CN1CCCC1 [Example 235, ((6-(difluoromethoxy)-2-(3″-fluoro-5″- methoxy-2,2′-dimethyl-4″-(pyrrolidin-1-ylmethyl)-[1,1′:3′,1″-terphenyl]-3-yl)benzo[d]oxazol-5-yl)methyl)-L-proline] |
| 290 | Cc1c(-c2ccc(CN3CCCC3)c(C(=O)O)c2)cccc1-c1cccc(-c2nc3cc(CN4CCC[C@H]4C(=O)O)c(OC(F)F)cc3o2)c1C [Example 236, ((2-(3″-carboxy-2,2′-dimethyl-4″-(pyrrolidin-1-ylmethyl)-[1,1′:3′,1″-terphenyl]-3-yl)-6-(difluoromethoxy)benzo[d]oxazol-5-yl)methyl)-L-proline] |
| 2.3 | Cc1c(-c2ccc(CN3CCC(C)C3)c(F)c2)cccc1-c1cccc(-c2nc3cc(CN4CCC[C@H]4C(=O)O)c(OC(F)F)cc3o2)c1C (stereo partly drawn) [Example 238, ((6-(difluoromethoxy)-2-(3″-fluoro-2,2′-dimethyl-4″-((3-methylpyrrolidin-1-yl)methyl)-[1,1′:3′,1″-terphenyl]-3-yl)benzo[d]oxazol-5-yl)methyl)-L-proline] |
| 0.99 | Cc1c(-c2ccc(CNCCO)c(F)c2)cccc1-c1cccc(-c2nc3cc(CN4CCC[C@H]4C(=O)O)c(OC(F)F)cc3o2)c1C [Example 239, ((6-(difluoromethoxy)-2-(3″-fluoro-4″-(((2-hydroxyethyl)amino)methyl)-2,2′-dimethyl-[1,1′:3′,1″-terphenyl]-3-yl)benzo[d]oxazol-5-yl)methyl)-L-proline] |
| 5.2 | Cc1c(-c2c[nH]c([C@@H]3CCCN3)n2)cccc1-c1cccc(-c2nc3cc(CN4CCC[C@H]4C(=O)O)c(OC(F)F)cc3o2)c1C [Example 247, ((6-(difluoromethoxy)-2-(2,2′-dimethyl-3′-(2-((S)-pyrrolidin-2-yl)-1H-imidazol-4-yl)-[1,1′-biphenyl]-3-yl)benzo[d]oxazol-5-yl)methyl)-L-proline] |

Same assay, conditions: range symbols

| SMILES | IC50 [nM] |
| --- | --- |
| Cc1c(-c2nc3cc(CN4CCC[C@H]4C(=O)O)c(OC(F)F)cc3o2)cccc1-c1cccc(-c2ccc(CNC[C@@H]3CCC(=O)N3)c(OC(F)F)c2)c1F [Example 216, ((6-(difluoromethoxy)-2-(3″-(difluoromethoxy)-2′-fluoro-2-methyl-4″-(((((S)-5-oxopyrrolidin-2-yl)methyl)amino)methyl)-[1,1′:3′,1″- terphenyl]-3-yl)benzo[d]oxazol-5-yl)methyl)-L-proline] | 0.1 to 5 |
| Cc1cc(-c2cccc(-c3cccc(-c4nc5cc(CN6CCC[C@H]6C(=O)O)c(OC(F)F)cc5o4)c3C)c2C)ccc1CN1CCCC1 [Example 218, ((6-(difluoromethoxy)-2-(2,2′,3″-trimethyl-4″- (pyrrolidin-1-ylmethyl)-[1,1′:3′,1″-terphenyl]-3-yl)benzo[d]oxazol-5-yl)methyl)proline] | 0.1 to 5 |
| Cc1c(-c2ccc(CN3CCCC3)c(Cl)c2)cccc1-c1cccc(-c2nc3cc(CN4CCC[C@H]4C(=O)O)c(OC(F)F)cc3o2)c1C [Example 219, ((2-(3″-chloro-2,2′-dimethyl-4″-(pyrrolidin-1-ylmethyl)-[1,1′:3′,1″-terphenyl]-3-yl)-6-(difluoromethoxy)benzo[d]oxazol-5-yl)methyl)proline] | 0.1 to 5 |
| Cc1c(-c2nc3cc(CN4CCC[C@H]4C(=O)O)c(OC(F)F)cc3o2)cccc1-c1cccc(-c2ccc(CN3CCCC3)cc2F)c1C [Example 220, ((6-(difluoromethoxy)-2-(2″-fluoro-2,2′-dimethyl-4″-(pyrrolidin-1-ylmethyl)-[1,1′:3′,1″- terphenyl]-3-yl)benzo[d]oxazol-5-yl)methyl)proline] | 0.1 to 5 |
| Cc1c(-c2nc3cc(CN4CCC[C@H]4C(=O)O)c(OC(F)F)cc3o2)cccc1-c1cccc(-c2ccc(CN3CCCC3)cc2F)c1Br [Example 221, ((2-(2′-bromo-2″-fluoro-2-methyl-4″- (pyrrolidin-1-ylmethyl)-[1,1′:3′,1″-terphenyl]-3-yl)-6-(difluoromethoxy)benzo[d]oxazol-5-yl)methyl)proline] | 0.1 to 5 |
| Cc1c(-c2nc3cc(CN4CCC[C@H]4C(=O)O)c(OC(F)F)cc3o2)cccc1-c1cccc(-c2ccc(CN3CCCC3)cc2F)c1Cl [Example 222, ((2-(2′-chloro-2″-fluoro-2-methyl-4″- (pyrrolidin-1-ylmethyl)-[1,1′:3′,1″-terphenyl]-3-yl)-6-(difluoromethoxy)benzo[d]oxazol-5-yl)methyl)proline] | 0.1 to 5 |
| Cc1c(-c2nc3cc(CN4CCC[C@H]4C(=O)O)c(OC(F)F)cc3o2)cccc1-c1cccc(-c2ccc(CN3CCCC3)cc2F)c1Cl [Example 223, ((2-(2′-chloro-2″-fluoro-2-methyl-4″- (pyrrolidin-1-ylmethyl)-[1,1′:3′,1″-terphenyl]-3-yl)-6-(difluoromethoxy)benzo[d]oxazol-5-yl)methyl)-L-proline] | 0.1 to 5 |
| Cc1c(-c2nc3cc(CN4CCC[C@@H]4C(=O)O)c(OC(F)F)cc3o2)cccc1-c1cccc(-c2ccc(CN3CCCC3)cc2F)c1Cl [Example 224, ((2-(2′-chloro-2″-fluoro-2-methyl-4″- (pyrrolidin-1-ylmethyl)-[1,1′:3′,1″-terphenyl]-3-yl)-6-(difluoromethoxy)benzo[d]oxazol-5-yl)methyl)-D-proline] | 0.1 to 5 |

The next lines start with the values.

| IC50 [nM] | SMILES |
| --- | --- |
| 5 to 50 | Cc1c(-c2ccc(CN3CC[C@H](CO)C3)c(C#N)c2)cccc1-c1cccc(-c2nc3cc(CN4CCC[C@H]4C(=O)O)c(OC(F)F)cc3o2)c1C [Example 240, ((2-(3″-cyano-4″-(((S)-3-(hydroxymethyl)pyrrolidin-1-yl)methyl)-2,2′-dimethyl-[l,1′:3′,1″-terphenyl]-3-yl)-6-(difluoromethoxy)benzo[d]oxazol-5-yl)methyl)-L-proline] |
| 5 to 50 | Cc1c(-c2ccc(CN3CCCC3)c(OCCc3ccc(F)cc3)c2)cccc1-c1cccc(-c2nc3cc(CN4CCC[C@H]4C(=O)O)c(OC(F)F)cc3o2)c1C [Example 249, ((6-(difluoromethoxy)-2-(3″-(4-fluorophenethoxy)-2,2′-dimethyl-4″-(pyrrolidin-1-ylmethyl)-[1,1′:3′,1″-terphenyl]-3-yl)benzo[d]oxazol-5-yl)methyl)proline] |
| 0.1 to 5 | Cc1c(-c2ccc(CN3CCCC3)c(OCC3CC3)c2)cccc1-c1cccc(-c2nc3cc(CN4CCC[C@H]4C(=O)O)c(OC(F)F)cc3o2)c1C [Example 250, ((2-(3″-(cyclopropylmethoxy)-2,2′-dimethyl-4″- (pyrrolidin-1-ylmethyl)-[1,1′:3′,1″-terphenyl]-3-yl)-6-(difluoromethoxy)benzo[d]oxazol-5-yl)methyl)proline] |
